Reference: US6737383B1, “Herbicidal oxadiazolidines” (priority 1999, dated 2004)

What was measured:
smallflower flatsedge = assay: Test B flood test smallflower flatsedge; type: in vivo, Cyperus difformis
How it was run: (§1)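 Flood test on plants grown to the 2-leaf stage; treated plants kept in greenhouse twelve to sixteen days, then visually rated against controls on a 0 (no effect) to 10 (complete control) scale.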

soybean = assay: Test B pre/postemergence soybean; type: in vivo, Glycine max; details: for Plant response rating, Soybean: Postemergence
How it was run: (§2)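 Test chemicals in a non-phytotoxic solvent mixture with surfactant were sprayed preemergence onto planted seeds and postemergence onto plants 2 to 18 cm tall (1- to 4-leaf stage). After twelve to sixteen days in a greenhouse, injury was visually rated against untreated controls from 0 (no effect) to 10 (complete control).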

purple nutsedge = assay: Test B pre/postemergence purple nutsedge; type: in vivo, Cyperus rotundus
How it was run: as §2

blackgrass = assay: Test B pre/postemergence blackgrass; type: in vivo, Alopecurus myosuroides
How it was run: as §2

pigweed = assay: Test B pre/postemergence pigweed; type: in vivo, Amaranthus retroflexus; details: for Plant response rating, Redroot pigweed: Postemergence
How it was run: as §2

crabgrass = assay: Test B pre/postemergence crabgrass; type: in vivo, Digitaria sanguinalis
How it was run: as §2

wheat = assay: Test B pre/postemergence wheat; type: in vivo, Triticum aestivum; details: for Plant response rating, Wheat: Postemergence
How it was run: as §2

corn = assay: Test B pre/postemergence corn; type: in vivo, Zea mays
How it was run: as §2

rape = assay: Test B pre/postemergence rape; type: in vivo, Brassica napus
How it was run: as §2

velvetleaf = assay: Test B pre/postemergence velvetleaf; type: in vivo, Abutilon theophrasti; details: for Plant response rating, Velvetleaf: Postemergence
How it was run: as §2

rice = assay: Test B flood test rice; type: in vivo, Oryza sativa
How it was run: as §1

wild oat = assay: Test B pre/postemergence wild oat; type: in vivo, Avena fatua; details: for Plant response rating, Wild oats: Postemergence
How it was run: as §2

sugar beet = assay: Test B pre/postemergence sugar beet; type: in vivo, Beta vulgaris; details: for Plant response rating, Sugarbeets: Postemergence
How it was run: as §2

surinam grass = assay: Test B pre/postemergence surinam grass; type: in vivo, Brachiaria decumbens
How it was run: as §2

duck salad = assay: Test B flood test duck salad; type: in vivo, Heteranthera limosa
How it was run: as §1

bedstraw = assay: Test B pre/postemergence bedstraw; type: in vivo, Galium aparine
How it was run: as §2

[1] = Rate 62 g/ha, flood test species, Pre-emergence, visual evaluation after twelve to sixteen days
[2] = Rate 125 g/ha, under heading Pre-emergence, flood test species, visual evaluation after twelve to sixteen days
[3] = Rate 250 g/ha, Pre-emergence (flood test species), scale 0 to 10, 0 is no effect, 10 is complete control
[4] = Rate 500 g/ha, Pre-emergence section of Table B, 0 to 10 scale (0 no effect, 10 complete control)
[5] = Rate 500 g/ha, scale of 0 to 10 where 0 is no effect and 10 is complete control
[6] = Preemergence, Rate 62 g/ha, scale 0 to 10 (0 no effect, 10 complete control)
[7] = Preemergence, Rate 125 g/ha, scale 0 to 10, 0 is no effect, 10 is complete control
[8] = Preemergence, Rate 500 g/ha, scale of 0 to 10 where 0 is no effect and 10 is complete control
[9] = Rate 250 g/ha, scale of 0 to 10 where 0 is no effect and 10 is complete control
[10] = Postemergence, Rate 62 g/ha, scale of 0 to 10, 0 is no effect, 10 is complete control
[11] = Postemergence, Rate 125 g/ha, scale 0 to 10, 0 is no effect, 10 is complete control
[12] = Postemergence, Rate 500 g/ha, scale of 0 to 10 where 0 is no effect and 10 is complete control
[13] = Rate 250 g/ha, Postemergence, scale of 0 to 10 where 0 is no effect and 10 is complete control

In the case of `CC(C)N(C(=O)n1oc(=O)n(CC2CC2)c1=O)c1ccccc1` [Compound 568], the “Plant response rating, S. Flatsedge (0 to 10 scale, 0 is no effect, 10 is complete control)” value (smallflower flatsedge; [1]) was 0, the “S. Flatsedge plant response rating (0 to 10 scale, 0 is no effect, 10 is complete control)” value (smallflower flatsedge; [2]) was 0 and the “S. Flatsedge plant response rating” value (smallflower flatsedge; [3]) was 0. For the same compound, the “S. Flatsedge plant response rating” value (smallflower flatsedge; [4]) was 4, the “Plant response rating, Soybean” value (soybean; [5]) was 6 and the “Soybean plant response rating” value (soybean; [6]) was 0. The “Soybean plant response rating” value (soybean; [7]) was 0, the “Soybean plant response rating (0 to 10 scale)” value (soybean; Preemergence, Rate 250 g/ha) was 3 and the “Soybean plant response rating” value (soybean; [8]) was 9. The “Plant response rating, Soybean” value (soybean; [9]) was 6, the “Nutsedge plant response rating” value (purple nutsedge; [10]) was 0 and the “Nutsedge plant response rating” value (purple nutsedge; [11]) was 0. The “Plant response rating, Nutsedge” value (purple nutsedge; [12]) was 0, the “Nutsedge plant response rating” value (purple nutsedge; [6]) was 0 and the “Nutsedge plant response rating” value (purple nutsedge; [7]) was 0. The “Nutsedge plant response rating (0 to 10 scale)” value (purple nutsedge; Preemergence, Rate 250 g/ha) was 0, the “Nutsedge plant response rating” value (purple nutsedge; [8]) was 3 and the “Plant response rating, Nutsedge” value (purple nutsedge; [13]) was 0. For the same compound, the “Blackgrass plant response rating” value (blackgrass; [10]) was 8, the “Blackgrass plant response rating” value (blackgrass; [11]) was 8 and the “Plant response rating, Blackgrass” value (blackgrass; [12]) was 9. The “Blackgrass plant response rating” value (blackgrass; [6]) was 5, the “Blackgrass plant response rating” value (blackgrass; [7]) was 8 and the “Blackgrass plant response rating (0 to 10 scale)” value (blackgrass; Preemergence, Rate 250 g/ha) was 8. For the same compound, the “Blackgrass plant response rating” value (blackgrass; [8]) was 9, the “Plant response rating, Blackgrass” value (blackgrass; [13]) was 8 and the “Plant response rating, Redroot pigweed” value (pigweed; [5]) was 2. The “Redroot pigweed plant response rating” value (pigweed; [6]) was 2, the “Redroot pigweed plant response rating” value (pigweed; [7]) was 4 and the “Redroot pigweed plant response rating (0 to 10 scale)” value (pigweed; Preemergence, Rate 250 g/ha) was 4. For the same compound, the “Redroot pigweed plant response rating” value (pigweed; [8]) was 8, the “Plant response rating, Redroot pigweed” value (pigweed; [9]) was 0 and the “Crabgrass plant response rating” value (crabgrass; [10]) was 8. For the same compound, the “Crabgrass plant response rating” value (crabgrass; [11]) was 8, the “Plant response rating, Crabgrass” value (crabgrass; [12]) was 9 and the “Crabgrass plant response rating” value (crabgrass; [6]) was 7. For the same compound, the “Crabgrass plant response rating” value (crabgrass; [7]) was 7, the “Crabgrass plant response rating (0 to 10 scale)” value (crabgrass; Preemergence, Rate 250 g/ha) was 9 and the “Crabgrass plant response rating” value (crabgrass; [8]) was 10. For the same compound, the “Plant response rating, Crabgrass” value (crabgrass; [13]) was 9, the “Plant response rating, Wheat” value (wheat; [5]) was 5 and the “Wheat plant response rating” value (wheat; [6]) was 0. For the same compound, the “Wheat plant response rating” value (wheat; [7]) was 0, the “Wheat plant response rating (0 to 10 scale)” value (wheat; Preemergence, Rate 250 g/ha) was 0 and the “Wheat plant response rating” value (wheat; [8]) was 5. For the same compound, the “Plant response rating, Wheat” value (wheat; [9]) was 4, the “Corn plant response rating” value (corn; [10]) was 0 and the “Corn plant response rating” value (corn; [11]) was 0. The “Plant response rating, Corn” value (corn; [12]) was 5, the “Corn plant response rating” value (corn; [6]) was 0 and the “Corn plant response rating” value (corn; [7]) was 4. The “Corn plant response rating (0 to 10 scale)” value (corn; Preemergence, Rate 250 g/ha) was 5, the “Corn plant response rating” value (corn; [8]) was 9 and the “Plant response rating, Corn” value (corn; [13]) was 4. For the same compound, the “Rape plant response rating” value (rape; [10]) was 0, the “Rape plant response rating” value (rape; [11]) was 0 and the “Plant response rating, Rape” value (rape; [12]) was 3. For the same compound, the “Rape plant response rating” value (rape; [6]) was 0, the “Rape plant response rating” value (rape; [7]) was 0 and the “Rape plant response rating (0 to 10 scale)” value (rape; Preemergence, Rate 250 g/ha) was 5. For the same compound, the “Rape plant response rating” value (rape; [8]) was 7, the “Plant response rating, Rape” value (rape; [13]) was 2 and the “Plant response rating, Velvetleaf” value (velvetleaf; [5]) was 8. The “Velvetleaf plant response rating” value (velvetleaf; [6]) was 5, the “Velvetleaf plant response rating” value (velvetleaf; [7]) was 6 and the “Velvetleaf plant response rating (0 to 10 scale)” value (velvetleaf; Preemergence, Rate 250 g/ha) was 6. For the same compound, the “Velvetleaf plant response rating” value (velvetleaf; [8]) was 7, the “Plant response rating, Velvetleaf” value (velvetleaf; [9]) was 5 and the “Plant response rating, Rice (0 to 10 scale, 0 is no effect, 10 is complete control)” value (rice; [1]) was 1. For the same compound, the “Rice plant response rating (0 to 10 scale, 0 is no effect, 10 is complete control)” value (rice; [2]) was 1, the “Rice plant response rating” value (rice; [3]) was 0 and the “Rice plant response rating” value (rice; [4]) was 0. For the same compound, the “Plant response rating, Wild oats” value (wild oat; [5]) was 6, the “Wild oats plant response rating” value (wild oat; [6]) was 5 and the “Wild oats plant response rating” value (wild oat; [7]) was 5. For the same compound, the “Wild oats plant response rating (0 to 10 scale)” value (wild oat; Preemergence, Rate 250 g/ha) was 6, the “Wild oats plant response rating” value (wild oat; [8]) was 8 and the “Plant response rating, Wild oats” value (wild oat; [9]) was 2. For the same compound, the “Plant response rating, Sugarbeets” value (sugar beet; [5]) was 2, the “Sugarbeets plant response rating” value (sugar beet; [6]) was 5 and the “Sugarbeets plant response rating” value (sugar beet; [7]) was 5. The “Sugarbeets plant response rating (0 to 10 scale)” value (sugar beet; Preemergence, Rate 250 g/ha) was 6, the “Sugarbeets plant response rating” value (sugar beet; [8]) was 8 and the “Plant response rating, Sugarbeets” value (sugar beet; [9]) was 1. The “B. signalgrass plant response rating” value (surinam grass; [10]) was 1, the “B. signalgrass plant response rating” value (surinam grass; [11]) was 4 and the “Plant response rating, B. signalgrass” value (surinam grass; [12]) was 7. The “B. signalgrass plant response rating” value (surinam grass; [6]) was 3, the “B. signalgrass plant response rating” value (surinam grass; [7]) was 6 and the “B. signalgrass plant response rating (0 to 10 scale, 0 is no effect, 10 is complete control)” value (surinam grass; Preemergence, Rate 250 g/ha) was 8. The “B. signalgrass plant response rating” value (surinam grass; [8]) was 9, the “Plant response rating, B. signalgrass” value (surinam grass; [13]) was 7 and the “Plant response rating, Ducksalad (0 to 10 scale, 0 is no effect, 10 is complete control)” value (duck salad; [1]) was 0. The “Ducksalad plant response rating (0 to 10 scale, 0 is no effect, 10 is complete control)” value (duck salad; [2]) was 0, the “Ducksalad plant response rating” value (duck salad; [3]) was 0 and the “Ducksalad plant response rating” value (duck salad; [4]) was 2. The “Bedstraw plant response rating” value (bedstraw; [10]) was 0, the “Bedstraw plant response rating” value (bedstraw; [11]) was 2 and the “Bedstraw plant response rating” value (bedstraw; [6]) was 0. For the same compound, the “Bedstraw plant response rating (0 to 10 scale)” value (bedstraw; Preemergence, Rate 250 g/ha) was 3 and the “Bedstraw plant response rating” value (bedstraw; [8]) was 8.
